Results on 12 compounds are retold here after ChEMBL document CHEMBL1201862, “PubChem BioAssay data set” (2004).

Some test systems named below: NCI-H460; OVCAR-5; NCI-H23; SF-268; HCT-15; DU-145; RXF 393; MOLT-4; UACC-62; HT-29; CCRF-CEM; K562; OVCAR-3; TK-10; M14; 786-0; OVCAR-4; SR; SF-539; NCI-H226.
Holding throughout (experiment): DTP human tumour cell line panel, 48 h

Molecules are shown by their SMILES.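 Five concentrations, 48 hours, 96-well plates. At the GI50, growth is halved.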 Activity calls are given as the source filed them. No stated cut-off is given here; in the data, active = GI50 up to about 1.1 µM and inactive = higher.

What is called GI50 is the concentration giving 50% growth inhibition. In the case of `O=c1ccc2c(Cl)sc(Cl)c2[nH]1`, the GI50 in the assay on NCI-H460 is > 100 µM (inactive); in the assay on OVCAR-5, > 100 µM (inactive); with NCI-H23, > 100 µM (inactive); in the assay with SF-268 it was > 100 µM (inactive); with HCT-15 it was greater than 100 µM; with DU-145 it was > 100 µM (inactive). In addition, the GI50 in the assay with RXF 393, in the assay on MOLT-4, with UACC-62, in the assay with HT-29, with CCRF-CEM and in the assay with K562 was > 100 µM (inactive) each time. For the same compound, the GI50 in the assay with OVCAR-3, with TK-10, with M14, in the assay with 786-0 and in the assay with OVCAR-4 was > 100 µM (inactive) throughout.
For the compound `CC(C)(C)OC(=O)C1C(=O)NC(=O)CC1C(COCc1ccccc1)OCc1ccccc1` (stereo unspecified), the GI50 in the assay with OVCAR-5 is 12.2 µM (inactive); in the assay with NCI-H23, 32.6 µM (inactive); in the assay with SF-268, 26.7 µM (inactive); in the assay on SR, 18 µM (inactive); in the assay on HCT-15, 21.6 µM; with DU-145 it was 39.7 µM (inactive). In addition, the GI50 was 17.5 µM (inactive) in the assay on MOLT-4; 21.6 µM (inactive) in the assay with SF-539; 18.7 µM (inactive) in the assay with HT-29; 25.5 µM (inactive) in the assay on CCRF-CEM; 30.1 µM (inactive) with K562; 17.6 µM (inactive) in the assay with NCI-H226. Moreover, the GI50 with OVCAR-3 is 21.8 µM (inactive); with TK-10, 35 µM (inactive); in the assay on M14, 18.9 µM (inactive); in the assay on 786-0, 24.3 µM (inactive).
For the compound `CCCNC(=S)N/C=C1/C(=O)C=C(C)OC1=O`, the GI50 in the assay with NCI-H460 is > 100 µM (inactive); with OVCAR-5, > 100 µM (inactive); with NCI-H23 it was > 100 µM (inactive); with HCT-15 it was greater than 100 µM; with DU-145 it was > 100 µM (inactive); in the assay on MOLT-4 it was > 100 µM (inactive). The GI50 was > 100 µM (inactive) in the assay on UACC-62; > 100 µM (inactive) in the assay on SF-539; > 100 µM (inactive) with HT-29; > 100 µM (inactive) in the assay with NCI-H226; > 100 µM (inactive) in the assay with OVCAR-3; 26.7 µM (inactive) in the assay on TK-10. The GI50 with M14, in the assay on 786-0 and in the assay on OVCAR-4 was > 100 µM (inactive) each time.
On to `c1c[nH]c(-c2ccc(-c3ccc[nH]3)c3nsnc23)c1`, for which the GI50 in the assay on NCI-H460 is 17.3 µM (inactive); with OVCAR-5, 1.14 µM (inactive); in the assay with NCI-H23, 0.0348 µM (active); in the assay on SF-268 it was > 53.6 µM (inactive); in the assay with HCT-15, 0.245 µM; in the assay with DU-145 it was > 56.8 µM (inactive). The GI50 in the assay on MOLT-4 is > 30.3 µM (inactive); in the assay on UACC-62, > 47.5 µM (inactive); with SF-539 it was > 56.9 µM (inactive); in the assay with HT-29, > 26.3 µM (inactive); in the assay with CCRF-CEM it was 15.4 µM (inactive); in the assay with K562, > 26.8 µM (inactive). Besides, the GI50 in the assay on NCI-H226 is > 100 µM (inactive); in the assay on OVCAR-3 it was 11.3 µM (inactive); in the assay with TK-10, 0.182 µM (active); in the assay on M14 it was > 46.9 µM (inactive); in the assay on 786-0, > 39.1 µM (inactive); with OVCAR-4, 0.612 µM (active).
In the case of `O=C(CCN1CCCC1)c1ccc(Oc2ccc(F)cc2)cc1`, the GI50 with NCI-H460 is > 100 µM (inactive); with OVCAR-5 it was > 100 µM (inactive); in the assay on NCI-H23, > 100 µM (inactive); in the assay with SF-268, 87.3 µM (inactive); in the assay with HCT-15, 41.3 µM; with DU-145, 53.5 µM (inactive). Moreover, the GI50 in the assay on RXF 393 was 22.3 µM (inactive); in the assay with MOLT-4, 24.4 µM (inactive); in the assay with UACC-62, 54.2 µM (inactive); in the assay with SF-539 it was 29.9 µM (inactive); with HT-29, 32.5 µM (inactive); in the assay on CCRF-CEM, 26.5 µM (inactive). The GI50 with K562 was 42.4 µM (inactive); in the assay with NCI-H226, > 100 µM (inactive); in the assay on OVCAR-3 it was 30.9 µM (inactive); in the assay with TK-10, 30.1 µM (inactive); with M14 it was 31 µM (inactive); with 786-0, 16.6 µM (inactive). The GI50 in the assay with OVCAR-4 was > 100 µM (inactive).
Turning to `COc1cc2c(cc1OC)C13CCN4CC5=CCOC6CC(=O)N2C1C6C5CC43O` (stereo unspecified), the GI50 in the assay with NCI-H460 was > 100 µM (inactive); in the assay with OVCAR-5 it was > 100 µM (inactive); with NCI-H23, > 100 µM (inactive); in the assay with SF-268, > 100 µM (inactive); in the assay with HCT-15 it was greater than 100 µM; in the assay with DU-145, > 100 µM (inactive). The GI50 with MOLT-4, in the assay on UACC-62, with SF-539, with HT-29, in the assay on CCRF-CEM and in the assay with K562 was > 100 µM (inactive) in each case. Moreover, the GI50 in the assay on NCI-H226, in the assay with OVCAR-3, with TK-10, in the assay with M14, with 786-0 and in the assay on OVCAR-4 was > 100 µM (inactive) in each case.
Consider `O=C(O)c1c(Cl)c(Cl)c(Cl)c(Cl)c1C(=O)Nc1ccc2cn[nH]c2c1`, for which the GI50 was > 100 µM (inactive) in the assay on NCI-H460; > 100 µM (inactive) in the assay with OVCAR-5; > 100 µM (inactive) in the assay on NCI-H23; > 100 µM (inactive) with SF-268; greater than 100 µM with HCT-15; 48 µM (inactive) in the assay on DU-145. For the same compound, the GI50 in the assay with RXF 393 was > 100 µM (inactive); with UACC-62, > 100 µM (inactive); with SF-539, > 100 µM (inactive); with HT-29, > 100 µM (inactive); in the assay with K562, 97.3 µM (inactive); with NCI-H226, > 100 µM (inactive). Moreover, the GI50 with OVCAR-3 is 65.2 µM (inactive); in the assay with TK-10, > 100 µM (inactive); in the assay on M14 it was > 100 µM (inactive); in the assay with 786-0, > 100 µM (inactive); with OVCAR-4, > 100 µM (inactive).
Consider `Oc1nc2c(c(-c3ccc(Br)cc3)n1)COC/C2=C\c1ccc(Br)cc1`, for which the GI50 in the assay on NCI-H460 was > 50 µM (inactive); with OVCAR-5 it was > 50 µM (inactive); in the assay on NCI-H23, > 50 µM (inactive); in the assay with SF-268, > 50 µM (inactive); in the assay with HCT-15, greater than 50 µM; in the assay with DU-145, > 50 µM (inactive). Moreover, the GI50 in the assay with RXF 393, in the assay on MOLT-4, with UACC-62, in the assay with SF-539, in the assay with HT-29 and with CCRF-CEM was > 50 µM (inactive) in each case. Also, the GI50 in the assay on K562, in the assay on NCI-H226, in the assay on OVCAR-3, in the assay with TK-10, in the assay with M14 and with 786-0 was > 50 µM (inactive) in each case. For the same compound, the GI50 in the assay with OVCAR-4 was > 50 µM (inactive).
As to `C=C(CCC=C(C)C)C1CC=C(C)CC1` (stereo unspecified), the GI50 in the assay with NCI-H460 is 19.3 µM (inactive); in the assay with OVCAR-5, > 100 µM (inactive); in the assay on NCI-H23, 17.7 µM (inactive); in the assay on SF-268, 28.8 µM (inactive); in the assay with HCT-15, 18.2 µM; in the assay on DU-145, 23.2 µM (inactive). Moreover, the GI50 is 13.9 µM (inactive) in the assay with RXF 393; 36.9 µM (inactive) in the assay with UACC-62; 25.9 µM (inactive) in the assay on SF-539; > 100 µM (inactive) in the assay with NCI-H226; 29.5 µM (inactive) in the assay with OVCAR-3; 38.5 µM (inactive) in the assay on TK-10. Besides, the GI50 is 62.4 µM (inactive) with M14 and 17.1 µM (inactive) in the assay on 786-0.
In the case of `CC(C)C1OC23CCCCC2C(C#N)(C#N)C1(C#N)C(=N)O3` (stereo unspecified), the GI50 in the assay on NCI-H460 is 4.73 µM (inactive); in the assay on OVCAR-5, 20.1 µM (inactive); with NCI-H23, 26.1 µM (inactive); with SF-268, 19.2 µM (inactive); in the assay with HCT-15, 9.46 µM; in the assay with DU-145, 26.3 µM (inactive). Moreover, the GI50 with RXF 393 was 20.5 µM (inactive); in the assay on MOLT-4, 23.1 µM (inactive); in the assay on UACC-62 it was 20.6 µM (inactive); in the assay with SF-539, 18 µM (inactive); with HT-29, 14.5 µM (inactive); in the assay on CCRF-CEM, 5.56 µM (inactive). For the same compound, the GI50 in the assay on K562 is 8.61 µM (inactive); with NCI-H226, 98.6 µM (inactive); in the assay with OVCAR-3, 22.7 µM (inactive); with TK-10, 19.9 µM (inactive); with M14, 12.8 µM (inactive); in the assay with 786-0 it was 14.2 µM (inactive).
For the compound `CC(C)=CCC[C@]1(C)CC[C@]2(C)C3CCC(=C(C)C)[C@@H](CCCO)[C@]3(C)CC[C@@]2(C)C1` (stereo partly specified), the GI50 was 54.1 µM (inactive) with NCI-H460; 59.4 µM (inactive) in the assay with OVCAR-5; 84.9 µM (inactive) with NCI-H23; 82 µM (inactive) in the assay on SF-268; 34 µM with HCT-15; 34 µM (inactive) in the assay on DU-145. Further, the GI50 with MOLT-4 was 39.2 µM (inactive); with UACC-62, > 100 µM (inactive); in the assay on HT-29, 40.2 µM (inactive); with CCRF-CEM, 36.9 µM (inactive); in the assay with NCI-H226 it was > 100 µM (inactive); in the assay with OVCAR-3 it was 47.1 µM (inactive). Besides, the GI50 with TK-10 is 20.2 µM (inactive); in the assay with M14, 30.3 µM (inactive); in the assay with 786-0, 32.4 µM (inactive); with OVCAR-4, > 100 µM (inactive).
Turning to `C=CC(Cl)(CBr)CCC(Br)C(C)(C)Cl` (stereo unspecified), the GI50 was 14.8 µM (inactive) with NCI-H460; 17.3 µM (inactive) in the assay with OVCAR-5; 17 µM (inactive) in the assay on NCI-H23; 20.8 µM (inactive) in the assay on SF-268; 18.3 µM in the assay with HCT-15; 19.7 µM (inactive) with DU-145. Further, the GI50 with RXF 393 was 17.4 µM (inactive); in the assay on MOLT-4, 3.23 µM (inactive); in the assay on UACC-62 it was 12.7 µM (inactive); with SF-539, 16.9 µM (inactive); in the assay with HT-29, 15.3 µM (inactive); in the assay with CCRF-CEM it was 1.89 µM (inactive). Besides, the GI50 is 14.9 µM (inactive) in the assay with K562; > 100 µM (inactive) with NCI-H226; 17.5 µM (inactive) in the assay on OVCAR-3; 23.2 µM (inactive) in the assay on TK-10; 13.6 µM (inactive) with M14; 11.7 µM (inactive) in the assay on 786-0. Also, the GI50 in the assay on OVCAR-4 was 16.6 µM (inactive).
